Measurements published in ChEMBL document CHEMBL3862010, “N-Arylsulfonyl-α-amino carboxamides are potent and selective inhibitors of the chemokine receptor CCR10 that show efficacy in the murine DNFB model of contact hypersensitivity” (Bioorg Med Chem Lett, 2016).

Biological target: T1, C-C chemokine receptor type 10 (Homo sapiens, UniProt P46092)
T1 sequence (P46092 whole entry): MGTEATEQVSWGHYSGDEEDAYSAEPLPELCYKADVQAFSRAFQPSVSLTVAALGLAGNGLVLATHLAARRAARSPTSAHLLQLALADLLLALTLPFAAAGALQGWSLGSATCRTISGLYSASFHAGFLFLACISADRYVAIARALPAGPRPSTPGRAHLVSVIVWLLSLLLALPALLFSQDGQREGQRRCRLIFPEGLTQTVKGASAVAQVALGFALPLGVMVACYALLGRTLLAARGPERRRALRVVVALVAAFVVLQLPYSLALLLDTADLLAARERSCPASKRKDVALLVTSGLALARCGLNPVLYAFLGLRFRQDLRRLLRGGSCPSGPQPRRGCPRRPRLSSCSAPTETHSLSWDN
Experiment: Antagonist activity at human CCR10 expressed in CHOK1 cells coexpressing aequorin/Galphaq assessed as inhibition of human CCL27-dependent calcium flux in presence of coelenterazine H by chemiluminescence assay
Assay type: functional, cell-based, CHO-K1
Conditions: read-out: pIC50 (converted)

Row | IC50 | Structure (SMILES)
1 | 251 nM | CC1CCN(C(=O)C(CCn2nccc2Cl)NS(=O)(=O)c2cc(Cl)c(N)c(Cl)c2)CC1 (configuration not stated)
2 | > 10000 nM | CC1CCN(C(=O)[C@H](CCc2ccccc2)NS(=O)(=O)c2cc(Cl)c(N)c(Cl)c2)CC1
3 | > 20000 nM | CC1CCN(C(=O)C(CCn2ccnn2)NS(=O)(=O)c2cc(Cl)c(N)c(Cl)c2)CC1 (configuration not stated)
4 | > 20000 nM | CC1CCN(C(=O)[C@H](CCn2ccnc2[N+](=O)[O-])NS(=O)(=O)c2cc(Cl)c(N)c(Cl)c2)CC1
5 | 501 nM | CC1CCN(C(=O)[C@@H](CCn2ccnc2[N+](=O)[O-])NS(=O)(=O)c2cc(Cl)c(N)c(Cl)c2)CC1
6 | 15800 nM | CC1CCN(C(=O)[C@H](CCn2cccc2C#N)NS(=O)(=O)c2cc(Cl)c(N)c(Cl)c2)CC1
7 | 501 nM | CC1CCN(C(=O)C(CCn2ccnc2C#N)NS(=O)(=O)c2cc(Cl)c(N)c(Cl)c2)CC1 (configuration not stated)
8 | 1260 nM | CC1CCN(C(=O)C(CCn2cccc2)NS(=O)(=O)c2cc(Cl)c(N)c(Cl)c2)CC1 (configuration not stated)
9 | 7.94 nM | CC1CCN(C(=O)[C@@H](CCn2cccc2C#N)NS(=O)(=O)c2cc(Cl)c(N)c(Cl)c2)CC1
10 | 1580 nM | CC1CCN(C(=O)C(CCn2cccn2)NS(=O)(=O)c2cc(Cl)c(N)c(Cl)c2)CC1 (configuration not stated)
11 | > 20000 nM | CC1CCN(C(=O)C(CCn2cncn2)NS(=O)(=O)c2cc(Cl)c(N)c(Cl)c2)CC1 (configuration not stated)
12 | 126 nM | CC1CCN(C(=O)C(CCc2ccccc2Cl)NS(=O)(=O)c2cc(Cl)c(N)c(Cl)c2)CC1 (configuration not stated)
13 | 3160 nM | CC1CCN(C(=O)C(CCn2nccn2)NS(=O)(=O)c2cc(Cl)c(N)c(Cl)c2)CC1 (configuration not stated)

Continued, compound first:

Row | Structure (SMILES) | IC50
14 | CC1CCN(C(=O)C(CCn2cccc2C#N)NS(=O)(=O)c2cc(Cl)c(N)cc2Cl)CC1 (configuration not stated) | 63.1 nM
15 | CC1CCCCN1C(=O)C(CCn1cccc1C#N)NS(=O)(=O)c1cccc2[nH]ccc12 (configuration not stated) | 20 nM
16 | CC1CCN(C(=O)C(CCn2cccc2C#N)NS(=O)(=O)c2c(N)cc(Cl)cc2Cl)CC1 (configuration not stated) | 39.8 nM
17 | CC1CCCN(C(=O)C(CCn2cccc2C#N)NS(=O)(=O)c2cccc3[nH]ccc23)C1 (configuration not stated) | 63.1 nM
18 | Cc1ccc(S(=O)(=O)NC(CCn2cccc2C#N)C(=O)N2CCC(C)CC2)c(C)c1N (configuration not stated) | 100 nM
19 | N#Cc1cccn1CCC(NS(=O)(=O)c1cccc2[nH]ccc12)C(=O)N1CCC(C(F)(F)F)CC1 (configuration not stated) | 10 nM
20 | CN(C)C(=O)C(CCn1cccc1C#N)NS(=O)(=O)c1cccc2[nH]ccc12 (configuration not stated) | 3980 nM
21 | N#Cc1cccn1CCC(NS(=O)(=O)c1cc(Cl)c(N)c(Cl)c1)C(=O)N1CCCCCC1 (configuration not stated) | 251 nM
22 | N#Cc1cccn1CCC(NS(=O)(=O)c1cccc2[nH]ccc12)C(=O)N1CCCCC1 (configuration not stated) | 10 nM
23 | N#Cc1cccn1CCC(NS(=O)(=O)c1cc(Cl)c(N)c(Cl)c1)C(=O)N1CCCCC1 (configuration not stated) | 158 nM
24 | CC1CCN(C(=O)C(CCn2cccc2C#N)NS(=O)(=O)c2ccc3[nH]ccc3c2)CC1 (configuration not stated) | 200 nM
25 | CN(C)C(=O)C(CCn1cccc1C#N)NS(=O)(=O)c1cc(Cl)c(N)c(Cl)c1 (configuration not stated) | > 10000 nM
26 | CC1CCCN(C(=O)C(CCn2cccc2C#N)NS(=O)(=O)c2cc(Cl)c(N)c(Cl)c2)C1 (configuration not stated) | 631 nM
27 | N#Cc1cccn1CCC(NS(=O)(=O)c1cc(Cl)c(N)c(Cl)c1)C(=O)N1CCC(C(F)(F)F)CC1 (configuration not stated) | 398 nM
28 | CC1CCN(C(=O)C(CCn2cccc2C#N)NS(=O)(=O)c2cccc3ccccc23)CC1 (configuration not stated) | 50.1 nM
29 | N#Cc1cccn1CCC(NS(=O)(=O)c1cccc2[nH]ccc12)C(=O)N1CCC(O)CC1 (configuration not stated) | 126 nM
30 | CC1CCCCN1C(=O)C(CCn1cccc1C#N)NS(=O)(=O)c1cc(Cl)c(N)c(Cl)c1 (configuration not stated) | 794 nM
31 | N#Cc1cccn1CCC(NS(=O)(=O)c1cccc2[nH]ccc12)C(=O)N1CCCCCC1 (configuration not stated) | 25.1 nM
32 | N#Cc1cccn1CCC(NS(=O)(=O)c1cc(Cl)c(N)c(Cl)c1)C(=O)N1CCCC1 (configuration not stated) | > 10000 nM
